The test system of the assay is HUVEC cells (Human Umbilical Vein Endothelial Cells). In words: Proliferation assay with LL37-loaded nanoparticles (CCK-8). It counts as cell-based. Particulars: 0.5 and 0.1 μg/ml LL37, after 48 hours, FIG. 6.

Consider “free LL37: Cathelicidin antimicrobial peptide LL37, SEQ ID NO 1 (LLGDFFRKSKEKIGKEFKRIVQRIKDFLRNLVPRTES), non-encapsulated”, for which the “cell proliferation compared with control groups” value was “greater cell proliferation”.

The values are drawn from patent US10206886B2, “Lipid nanoparticles for wound healing” (Praxis Biopharma Research Institute, priority 2013, dated 2019).
